ChEMBL document CHEMBL5370588, “Unraveling the unexpected aggregation behavior of Pyrazole-Based compounds Targeting Mycobacterium tuberculosis UDP-Galactopyranose mutase” (Bioorg Med Chem, 2023)
Calls of active or inactive are those of the source. The calls are words filed in the database; no cut-off is given here.

Columns and labels:
[1] = target: T1, UDP-galactopyranose mutase (Mycobacterium tuberculosis, UniProt P9WIQ1); test: Inhibition of His6-tagged Mycobacterium tuberculosis reduced UDP-galactopyranose mutase expressed in Escherichia coli BL21 assessed as reduction in UDPGalf production using UDPGalp as substrate by HPLC analysis
T1 sequence (P9WIQ1 whole entry): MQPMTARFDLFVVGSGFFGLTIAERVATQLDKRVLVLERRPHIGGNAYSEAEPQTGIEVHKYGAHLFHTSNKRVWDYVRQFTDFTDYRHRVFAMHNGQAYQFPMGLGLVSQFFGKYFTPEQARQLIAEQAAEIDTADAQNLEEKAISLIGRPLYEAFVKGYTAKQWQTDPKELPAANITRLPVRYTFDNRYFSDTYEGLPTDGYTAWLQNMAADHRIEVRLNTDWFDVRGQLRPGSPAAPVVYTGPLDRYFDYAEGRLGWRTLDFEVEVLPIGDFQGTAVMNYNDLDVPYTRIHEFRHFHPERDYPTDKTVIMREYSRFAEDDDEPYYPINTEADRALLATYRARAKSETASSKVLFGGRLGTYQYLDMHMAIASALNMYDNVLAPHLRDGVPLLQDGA

[2] = target: T1, UDP-galactopyranose mutase; test: Inhibition of His6-tagged Mycobacterium tuberculosis reduced UDP-galactopyranose mutase expressed in Escherichia coli BL21 assessed as reduction in UDPGalf production using UDPGalp as substrate in presence of TritonX100 by HPLC analysis
[3] = target: UDP-galactopyranose mutase (Mycobacterium tuberculosis) (UniProt P9WIQ1); test: Binding affinity to His6-tagged Mycobacterium tuberculosis UDP-galactopyranose mutase expressed in Escherichia coli BL21 assessed as change melting temperature at 20 uM in presence of Sypro Orange by thermal shift assay
Sequence of UDP-galactopyranose mutase (Mycobacterium tuberculosis) (P9WIQ1 whole entry, looked up): as the sequence (P9WIQ1 whole entry) above

[4] = Aggregation property of compound in PBS at pH 7 assessed as critical aggregation concentration by DLS assay; format: physicochemical; conditions: buffer
[5] = Aggregation property of compound in PBS at pH 7 at 80 uM by DLS assay; format: physicochemical; conditions: buffer, pH 7, 80 µM
[6] = target: UDP-galactopyranose mutase (Mycobacterium tuberculosis) (UniProt P9WIQ1); test: Binding affinity to His6-tagged Mycobacterium tuberculosis reduced UDP-galactopyranose mutase expressed in Escherichia coli BL21 assessed as increase in corrected fluorescence intensity at 100 to 1000 uM in presence of ANS by fluorescence-based binding assay; conditions: dose 100-1000 µM
[7] = target: UDP-galactopyranose mutase (Mycobacterium tuberculosis) (UniProt P9WIQ1); test: Binding affinity to His6-tagged Mycobacterium tuberculosis reduced UDP-galactopyranose mutase expressed in Escherichia coli BL21 assessed as increase in corrected fluorescence intensity using UDP-Galp as substrate at 100 to 1000 uM in presence of ANS by fluorescence-based binding assay; conditions: dose 100-1000 µM
[8] = target: UDP-galactopyranose mutase (Mycobacterium tuberculosis) (UniProt P9WIQ1); test: Binding affinity to His6-tagged Mycobacterium tuberculosis UDP-galactopyranose mutase expressed in Escherichia coli BL21 assessed as change melting temperature up to 600 uM in presence of Sypro Orange by thermal shift assay
[9] = target: UDP-galactopyranose mutase (Mycobacterium tuberculosis) (UniProt P9WIQ1); test: Binding affinity to His6-tagged Mycobacterium tuberculosis UDP-galactopyranose mutase expressed in Escherichia coli BL21 assessed as decrease in melting temperature at 800 to 1000 uM in presence of Sypro Orange by thermal shift assay; conditions: dose 800-1000 µM
[10] = target: UDP-galactopyranose mutase (Mycobacterium tuberculosis) (UniProt P9WIQ1); test: Binding affinity to His6-tagged Mycobacterium tuberculosis UDP-galactopyranose mutase expressed in Escherichia coli BL21 assessed as increase in melting temperature using UDP-Galp as substrate at < 100 uM in presence of Sypro Orange by thermal shift assay
[11] = target: UDP-galactopyranose mutase (Mycobacterium tuberculosis) (UniProt P9WIQ1); test: Binding affinity to His6-tagged Mycobacterium tuberculosis UDP-galactopyranose mutase expressed in Escherichia coli BL21 assessed as decrease in melting temperature using UDP-Galp as substrate at 100 to 400 uM in presence of Sypro Orange by thermal shift assay; conditions: dose 100-400 µM
[12] = target: UDP-galactopyranose mutase (Mycobacterium tuberculosis) (UniProt P9WIQ1); test: Binding affinity to His6-tagged Mycobacterium tuberculosis UDP-galactopyranose mutase expressed in Escherichia coli BL21 assessed as increase in melting temperature using UDP-Galp as substrate at 600 to 800 uM in presence of Sypro Orange by thermal shift assay; conditions: dose 600-800 µM
[13] = target: T1, UDP-galactopyranose mutase; test: Inhibition of Mycobacterium tuberculosis UDP-galactopyranose mutase expressed in Escherichia coli BL21 using […] as substrate by Dixon plot analysis
[14] = target: T1, UDP-galactopyranose mutase; test: Inhibition of Mycobacterium tuberculosis UDP-galactopyranose mutase expressed in Escherichia coli BL21 using […] as substrate by cornish-bowden plot analysis
[15] = target: T1, UDP-galactopyranose mutase; test: Inhibition of His6-tagged Mycobacterium tuberculosis UDP-galactopyranose mutase expressed in Escherichia coli BL21 using […] as substrate by Dixon plot analysis

Q: For `Cc1nn(-c2ccc(Cl)cc2)c(O)c1C(=O)c1ccccc1`, which IC50 [1] is on record?
A: 610 µM

Q: And the IC50 [2]?
A: 1510 µM

Q: For `Cc1nn(-c2ccc(Cl)cc2)c(O)c1S(=O)(=O)c1ccc(Cl)cc1`, which IC50 [1] is on record?
A: 225 µM

Q: And the IC50 [2]?
A: 4340 µM

Q: Which IC50 [1] does the source give for `OC(c1ccc(Cl)cc1)c1cn(-c2ccc(Cl)cc2)nn1` (stereo not given) here?
A: 150 µM

Q: And the IC50 [2]?
A: 2710 µM

Q: Which ΔTm [3] does the source give for `Cc1[nH]n(-c2ccc(Cl)cc2)c(=O)c1C(=O)c1ccc(Cl)cc1` here?
A: 5 °C

Q: And the CAC [4]?
A: > 50 µM

Q: What about the Activity [5] of the same compound?
A: Active

Q: What about the Activity [6] of the same compound?
A: Active

Q: And the Activity [7]?
A: Active

Q: And the Activity [8]?
A: inactive

Q: And the Activity [9]?
A: Active

Q: What about the Activity [10] of the same compound?
A: Active

Q: What about the Activity [11] of the same compound?
A: Active

Q: And the Activity [12]?
A: Active

Q: What about the IC50 [1] of the same compound?
A: 880 µM

Q: And the IC50 [2]?
A: 590 µM

Q: And the Ki [13]?
A: ~135 µM

Q: And the Ki [14]?
A: ~400 µM

Q: Which IC50 [1] does the source give for `Cc1cc(OC(=O)c2ccc(S(N)(=O)=O)cc2)n(-c2ccc(Cl)cc2)n1` here?
A: 500 µM

Q: What about the IC50 [2] of the same compound?
A: 1130 µM

Q: What about the Ki [15] of the same compound?
A: ~51 µM

Q: Which IC50 [1] does the source give for `O=C(CCc1cn(-c2ccc(Cl)cc2)nn1)Oc1ccc(Cl)cc1` here?
A: 530 µM

Q: And the IC50 [2]?
A: 1260 µM
